The structures appear in SMILES notation.

4 molecules from ChEMBL document CHEMBL1152047, “(cis)-3-methyl-1,5-benzothiazepine-4-ones: potent analogs of the calcium channel blocker diltiazen” (Bioorg Med Chem Lett, 1993) can be followed below.

This test is filed under the species Oryctolagus cuniculus. Description: Vasorelaxant potency determined by relaxation of potassium depolarized rabbit aortic strips. It counts as functional. The settings on record: Aorta.
`COc1ccc([C@@H]2Sc3ccccc3N(CCN(C)C)C(=O)[C@@H]2C)cc1`: the IC50 (as a rule, the concentration at which inhibition is half-maximal) came to 82 nM.
The molecule `COc1ccc([C@@H]2Sc3cc(OC)ccc3N(CCN(C)C)C(=O)[C@@H]2OC(C)=O)cc1` displayed a half-inhibitory concentration (IC50) of 120 nM.
The molecule `COc1ccc([C@@H]2Sc3cc(C(F)(F)F)ccc3N(CCN(C)C)C(=O)[C@@H]2C)cc1` displayed an IC50 of 22 nM.
In turn, `COc1ccc([C@@H]2Sc3cc(OC)ccc3N(CCN(C)C)C(=O)[C@@H]2C)cc1` registered an IC50 of 10 nM.
